Data set [1] concerns Influenza A virus. Kind of data set: In vitro antiinfluenza activity against influenza virus A strain. It counts as functional, organism-based.
Data set [2] deals with Influenza B virus. The data set can be described thus: In vitro antiinfluenza activity against influenza virus B strain. It counts as functional, organism-based.
The nature of data set [3]: Lethal dose against mice upon intraperitoneal administration. The note with it: mouse, in vivo, ip. The data set is classed as toxicity.
The nature of data set [4]: Lethal dose against mice upon oral administration. The data set is classed as toxicity. Particulars: mouse, in vivo.

Usually IC50 stands for the midpoint of a concentration-inhibition curve. Higher therefore signals weaker potency. Turning to `Cc1nc2nccc-2c(NCCc2cccc(N(C)C)c2)[nH]1`, the half-maximal inhibitory concentration (IC50) in data set [1] is 55 µM.

Usually LD50 stands for the dose expected to kill half of the subjects tested. Read a high LD50 as lower toxicity. For `Cc1nc(NCc2cccc(N3CCCCC3)c2)c2cc[nH]c2n1`, the IC50 in data set [2] is 5.1 µM; in data set [1], 2.3 µM. In addition, the LD50 in data set [3] and in data set [4] was more than 500 mg/kg throughout.

As for `Cc1nc(NCCc2cccc(N3CCCCC3)c2)c2cc[nH]c2n1`, 28.6 µM corresponded to half-maximal inhibition in data set [1] (IC50). That is a double-digit micromolar value.

The compound `Cc1nc(NCc2ccccc2)c2cc[nH]c2n1` [ROLODINE] had an IC50 in data set [1] of more than 100 µM.

Regarding `Cc1nc(NCc2cccc(N3CCCC3)c2)c2cc[nH]c2n1`, the IC50 is 6.4 µM in data set [2] and 4.8 µM in data set [1].

On to `Cc1nc2nccc-2c(NCc2cccc(N(C)C)c2)[nH]1`, for which the figures for the IC50 in data set [2] and in data set [1] were less than 100 µM and 18 µM, respectively.

In the case of `Cc1nc(NCCc2cccc(N3CCCC3)c2)c2cc[nH]c2n1`, the IC50 in data set [1] came to 23.9 µM.

`NC12CC3CC(CC(C3)C1)C2` [AMANTADINE] returned an IC50 in data set [1] of 1.25 µM.

In data set [1], `Cc1nc(NCCc2ccccc2)c2cc[nH]c2n1` returned an IC50 of 38.4 µM.

These data come from ChEMBL document CHEMBL1128988, “The antiinfluenza activity of pyrrolo[2,3-d]pyrimidines” (Bioorg Med Chem Lett, 1996).
